Assay results published in patent publication US20010048946A1, “SOLID PHARMACEUTICAL DOSAGE FORMS IN FORM OF A PARTICULATE DISPERSION” (priority 1997, published 2001).

What was measured:
[1] = Dissolution testing, USP apparatus II, 900 mL medium, 37° C., 75 rpm; assay type: physicochemical; details: 100 mg CI-991
Method: (0.1 M) Phosphate solution was prepared by dissolving a calculated amount of Na2HPO4 in USP water. The pH-value of the (0.1 M) phosphate solution was then adjusted to 8.0±0.02 by 85% phosphoric acid to give a pH 8 (0.1 M) phosphate buffer. An appropriate amount of SLS was added and dissolved in the pH 8 (0.1 M) phosphate buffer to give the pH 8 (0.1 M) phosphate buffer containing 0.5% (g/mL) SLS.
(0.05 M) Phosphate solution was prepared by mixing 1:1 ratio of the aqueous solutions of (0.025 M) Na2HPO4 and (0.025 M) K2HPO4. The pH value of the (0.05 M) phosphate solution was then adjusted to 9.0±0.02 by 85% phosphoric acid to give the pH 9 (0.05 M) phosphate buffer.
The dissolution studies were conducted in 900 mL of dissolution medium maintained at 37° C., using USP apparatus II (Distek 2100A dissolution system, North Brunswick, N.J.) at 75 rpm of paddle speed. After dispersing a sample containing 100 mg of CI-991 into the dissolution medium, about 10 mL of solutions were periodically sampled and filtered by Gelman Nylon Acrodisc 0.45 μm filters to give clear filtrates (discard the first 2 mL filtrate). The extent of the drug dissolved in the dissolution medium was determined by UV spectrometry at λ=284 nm. Interference by the excipients was not observed during analysis. Experiments were run in duplicate, and the results were averaged.

[2] = gastrointestinal pH range of 1.0 to 7.5; cited from earlier work
[3] = pH 8 (0.1 M) phosphate buffer containing 0.5% SLS

SMILES: Cc1c(C)c2c(c(C)c1O)CCC(C)(COc1ccc(CC3SC(=O)NC3=O)cc1)O2 (stereo not shown) [CI-991 Pure Drug, Troglitazone]
- Percent of CI-991 Dissolved in Solution at 5 min [1, 3]: 3.9 ± 0.1%
- Percent of CI-991 Dissolved in Solution at 10 min [1, 3]: 6.3 ± 0.1%
- Percent of CI-991 Dissolved in Solution at 15 min [1, 3]: 8.2 ± 0.1%
- Percent of CI-991 Dissolved in Solution at 5 min ([1]; pH 9 (0.05 M) phosphate buffer): 0.5 ± 0.1%
- Percent of CI-991 Dissolved in Solution at 10 min ([1]; pH 9 (0.05 M) phosphate buffer): 0.4 ± 0.1%
- Percent of CI-991 Dissolved in Solution at 15 min ([1]; pH 9 (0.05 M) phosphate buffer): 1.2 ± 0.2%
- water solubility (in words) [2]: practically water-insoluble
